From patent US20250186536A1, “SUSTAINED RELEASE PEPTIDE FORMULATIONS” (RHYTHM PHARMACEUTICALS, INC., priority 2017, published 2025)

Assays:
[1] = Part B multiple-dose pharmacokinetics (once weekly for 4 weeks) in obese subjects; format: in vivo, human
Procedure: (§1) In order to assess the pharmacokinetics of setmelanotide, a two part study was carried out comprising single dose administration (Part A) and multiple dose administration (Part B) with healthy obese subjects.
(§2) Part A was a rising-dose, placebo-controlled study including up to 3 sequential panels. For each panel, 10 normal obese subjects in good health between the ages of 21 and 54 were assigned to randomly-ordered treatments which included 8 active and 2 placebo treatments. Data acquired from Part A were used to determine the dose and dosing regimen for Part B. In Part B, 12 normal healthy obese patients were randomly assigned to receive either 6 active and 6 placebo treatments. Subjects received once weekly subcutaneous injection of the assigned formulation for 4 weeks. Patients in Part B were housed in the clinical unit for the 28 days.
(§3) Setmelanotide was formulated in a sterile liquid polar lipid phase consisting of soy phosphatidylcholine, glycerol dioleate, ethanol and citrate buffer. Without being bound by theory, the setmelanotide formulation behaves in a long-acting fashion, wherein when injected subcutaneously, aqueous body fluid is absorbed by the lipid phase to form a gel like depot consisting of liquid crystals formed in situ.
Twelve (12) obese subjects were enrolled in Part B; 6 received active drug, and 6 were given placebo. Based on results from Part A, setmelanotide 10 mg once weekly was selected as the dose for Part B. Subjects were housed in the clinical facility for the entire 4 weeks of study. Qualified subjects entered the clinical facility the evening before the first dose. Subjects assigned to active treatment received setmelanotide 10 mg subcutaneously in the morning on Day 1. Placebo subjects received the same volume of the placebo injection as the active treatment. Subjects were fasting from the evening before to 4 hours after dosing. Standard lowfat meals were served. Subjects were also dosed on Days 8, 15, and 22 with the treatment given on Day 1.
Blood samples were collected at a time before dosing and at 0.5, 1, 2, 3, 4, 6, 8, 10, 12, 16, 24, 30, 36, 48, 60, 72, 96, 120, 168, 240, and 336 hours during Week 1 and during Week 4. The actual sampling times were recorded. In addition, blood samples were collected at a time just before dosing for trough setmelanotide concentrations for evaluating the attainment of steady state.

[2] = Stability analysis of setmelanotide formulations (degradation by HPLC); format: physicochemical
Procedure: Components of exemplary setmelanotide formulations were varied in order to assess their impact on the stability of setmelanotide over time. In a first study, setmelanotide formulations were prepared as described in Example 2 with 30 mg/mL setmelanotide using different forms of GDO: 1) GDO of commercial purity; 2) GDO of commercial purity, which has been further purified to remove fatty acid compounds; and 3) synthetic GDO. The formulations were stored in 1 mL glass syringes equipped with staked stainless steel […] and rubber plungers at 40° C. for up to three months.
The effect of EDTA concentration on setmelanotide degradation was also investigated in a second study. Syringes containing setmelanotide formulations with higher EDTA along with GDO of varying sources were prepared, and setmelanotide degradation was quantified by HPLC over time. The results of this study are depicted in FIG. 6, and indicate that higher concentrations of EDTA have a small effect on setmelanotide stability in the presence of either GDO of commercial purity or synthetic GDO.
In a third study, the effect of setmelanotide and EDTA concentrations were explored in the presence of synthetic GDO.

[3] = Part A single-dose pharmacokinetics of long-acting setmelanotide formulation in healthy obese subjects; format: in vivo, human; conditions: for AUC(0-inf) / Cmax / Tmax / half-life: human, plasma; for Tmax: read-out: median tmax
Procedure: as §1, §2, §3
10 normal obese subjects enrolled for each dose level of Part A; 8 received active drug, and 2 received placebo. There were 3 dose levels used in the single dose phase which were administered according to the sequential, rising dose design. The single setmelanotide doses administered were in sequence: 2.5 mg, 10 mg, and 30 mg. Setmelanotide concentrations were analyzed and safety was assessed before the next higher dose level was started. The drug was administered subcutaneously on the morning of dosing. Blood samples were collected prior to dosing and at 0.5, 1, 2, 3, 4, 6, 8, 10, 12, 16, 24, 30, and 36 hours post-dose (in the clinic), then at approximately 48, 60, 72, 96, 120, 168, 240, and 336 hours post-dose as outpatients. Based on the PK analysis of the first dose, additional blood samples were included for the 30 mg dose at 21 ([…]) and 28 ([…]) days post-dose. The actual times of blood collection were recorded.

[4] = 10 mg SC once weekly for 4 weeks

CC(=O)N[C@@H](CCCNC(=N)N)C(=O)N[C@H]1CSSC[C@@H](C(N)=O)NC(=O)[C@H](Cc2c[nH]c3ccccc23)NC(=O)[C@H](CCCNC(=N)N)NC(=O)[C@@H](Cc2ccccc2)NC(=O)[C@H](Cc2c[nH]cn2)NC(=O)[C@@H](C)NC1=O [setmelanotide]
accumulation index [1, 4]: 1.46 | lag in absorption [1, 4]: no lag in absorption | attainment of steady state (trough concentrations, visual inspection) ([1]; 10 mg SC once weekly, 4 weekly doses): attained during Week 4 | Cmax ([1]; human, plasma, 10 mg SC once weekly for 4 weeks): 11.4 ng/mL | level at 168 h ([1]; human, plasma, 10 mg SC once weekly for 4 weeks, end of 1-week dosing interval, read-out: mean concentration at 168 hours): 2.92 ng/mL | Tmax ([1]; human, plasma, 10 mg SC once weekly for 4 weeks, read-out: median tmax): 4 h | setmelanotide degradation ([2]; 15 mg/mL formulations compared with 30 mg/mL formulations, synthetic GDO): higher levels of degradation | setmelanotide degradation ([2]; 30 mg/mL formulation prepared with synthetic GDO vs GDO of commercial purity or further purified, 40° C. up to three months, HPLC): lower amount | effect of higher EDTA concentration on setmelanotide stability ([2]; GDO of commercial purity or synthetic GDO, HPLC over time): small effect | effect of increasing EDTA concentration on degradation ([2]; as setmelanotide concentration decreases, synthetic GDO): greater effect | dose proportionality of AUC∞ ([3]; 2.5 mg dose): less than proportional | dose proportionality of AUC ([3]; 10 mg and 30 mg doses): proportional | dose proportionality of Cmax ([3]; 2.5 to 30 mg dose range): roughly proportional | AUC(0-inf) ([3]; single SC dose 2.5 mg): 92.9 ng·h/mL | Cmax ([3]; single SC dose 2.5 mg): 2.92 ng/mL | Tmax ([3]; single SC dose 2.5 mg): 3.5 h | AUC(0-inf) ([3]; single SC dose 10 mg): 1140 ng·h/mL | Cmax ([3]; single SC dose 10 mg): 11.5 ng/mL | half-life ([3]; single SC dose 10 mg): 123 h | Tmax ([3]; single SC dose 10 mg): 4 h | AUC(0-inf) ([3]; single SC dose 30 mg): 3470 ng·h/mL | Cmax ([3]; single SC dose 30 mg): 34.1 ng/mL | half-life ([3]; single SC dose 30 mg): 159 h | Tmax ([3]; single SC dose 30 mg): 6 h | time by which all values were below quantifiable ([3]; single SC dose 2.5 mg): ≤ 96 h | time past which profile was defined ([3]; single SC dose 10 mg): > 168 h | time past which profile was defined ([3]; single SC dose 30 mg): > 168 h | earliest plasma sample time in which setmelanotide appeared ([3]; single SC dose, generally): 0.5 h | time measurable in plasma after dosing ([3]; single SC dose, generally): ≥ 2 weeks | time to maximum concentrations after dosing ([3]; single SC dose, generally over the three dose levels): about 4 hours | early burst effect or dose dumping ([3]; single dose administration): no early burst effect or dose dumping | lag-time of absorption ([3]; single dose administration): little to no lag-time
